Assay results reported in patent US6544976B1, “Neurotrophic 2-azetidinecarboxylic acid derivatives, and related compositions and methods” (Ortho-McNeil Pharmaceutical, Inc., priority 1999, dated 2003).

Columns and labels:
[1] = tested on: Human M17 Neuroblastoma Cells; assay: Neurite outgrowth assay (MAP-2 immunofluorescence) in M17 neuroblastoma cells; type: cell-based; settings: MAP-2 fluorescence, active if greater than mean DMSO-treated control on same plate, NA = Not active
Procedure: M17 human neuroblastoma cells are cultured in 1:1 ratio of EMEM and Ham's F12 with 1×NEAA and 10% FBS. The culture media contains 1×PSN antibiotic and is exchanged every other day, and the cells are passed in log phase near confluence.
(§1) Cultures are incubated with normal horse serum (1:50; Vector Labs) for about 20 min, rinsed and then incubated with primary antibody, microtubule associated-protein 2 (anti-mouse MAP-2; 1:1000; Chemicon) for about 2 h at about RT. Following primary antibody, cultures are rinsed and incubated with fluorescein anti-mouse IgG (rat absorbed; 1:50; Vector Labs) for about 1 h. After fluorescein incubation, the cultures are rinsed and read in PBS on a fluorescent plate reader (excitation: 485 nm; emission: 530 nm). A compound is regarded as active if the neurite outgrowth response is greater than the mean DMSO-treated control response on the same plate. The response to test compound is reported as percent of DMSO-treated control (absent the percentage sign). The signal-to-noise separation is consistent: the fluorescence from DMSO control wells is at least two-fold greater than blank wells.

[2] = tested on: Primary Rat Hippocampal Cells; assay: Neurite outgrowth assay (MAP-2 immunofluorescence) in primary rat hippocampal cells; type: cell-based; settings: MAP-2 fluorescence, active if greater than mean DMSO-treated control on same plate, NA = Not active
Procedure: Hippocampal cells are dissected from the brains of embryonic day 18 rat pups and dissociated with trypsin (1 mg/mL) and trituration. Cells are seeded at 30,000 cells/well in 96-well plates filled with 100 μL MEM and 10%FBS. At 7 days in culture, cells are fixed with 4% paraformaldehyde and immunofluorescence is performed.
as §1

[3] = tested on: DRG; assay: Dorsal root ganglion (DRG) culture, neurite outgrowth; type: cell-based, CD rats; parameters: key: + = Positive results for each experiment; − = Negative results for each experiment; NA = Not active; settings: test compound 50-250 nM; neurite outgrowth examined on days 1-5; positive (+) if compound induced neurites of ≧1 diameter of the DRG
Procedure: DRG are dissected from newborn or 1-day-old CD rats and placed into PBS on ice. After rinsing twice with sterile plating medium, DRG are transferred to empty wells of a 6-well plate coated with polyomithine/laminin (Becton Dickinson Labware) using #7 curved forceps. Three ml/well of plating medium are then added very gently, so as not to disturb the DRG. Plating medium is Leibovitz's L-15 medium (Gibco), plus 0.6% glucose, 33 mM KCl, 10% FCS, 10 mM Hepes and penicillin/streptomycin/glutamine. After overnight incubation at about 37° C. in 5% CO2, this medium is replaced with 3 mL/well of assay medium [Leibovitz's L-15 medium plus 0.6% glucose, 1% FCS, 1% N-2 supplement (Gibco), […], 10 mM Hepes, and penicillin/streptomycin/glutamine] containing either vehicle (DMSO, 1/200,000), positive control (2-4 ng/mL NGF) or test compound (50-250 nM). All media are prepared fresh daily. DRG are microscopically examined for neurite outgrowth on days 1-5.

[4] = tested on: PC12 cells; settings: cultures of PC12 cells; cited from earlier work
[5] = tested on: sensory ganglia; settings: cultures of sensory ganglia; cited from earlier work
[6] = tested on: facial nerve; assay: Rat facial nerve compression model; type: in vivo, Long-Evans rats; settings: p.o. about 20 mg/kg twice a day for 15 days after surgery; compared to vehicle and internal control; FIG. 1
Procedure: In this model, compressing the facial nerve causes paralysis of the whisker muscle on that side of the face. The untreated facial nerve on the other side functions as an internal control. […] The whisker movement recovery rate on the paralyzed side compared to the vehicle and internal control is shown in this FIGURE.
Long-Evans rats are anesthetized under ketamine (60 mg/kg)/xylazine (6 mg/kg). The facial nerve is exposed and mechanically compressed with forceps near the stylomastoid foramen unilaterally with the opposite, non-lesioned side serving as an internal control. […] Rats received test compound p.o. at about 20 mg/kg twice a day for 15 days after the surgery. Control rats received vehicle only. Three to eight rats are tested in each group. Restoration of whisker movement after the treatment with compounds of the present invention is recorded at different post-operative time points daily, up to two weeks, and is shown in FIG. 1.

| Compound | M17 Cell Response [1] | Rat Hippocampal Cell Response [2] | other results |
| --- | --- | --- | --- |
| CCC(C)(C)C(=O)C(=O)N1CC[C@H]1C(=O)OCCCCc1ccc(OC)cc1 [Compound 4, (2S)-[4-(4-Methoxyphenyl)-1-butyl]-1-(1,2-dioxo-3,3-dimethylpentyl)azetidine-2-carboxylate] | 107% of DMSO-treated control |  |  |
| CCC(C)(C)C(=O)C(=O)N1CC[C@H]1C(=O)OCCC(c1ccccc1)c1ccccc1 [Compound 3, (2S)-(3,3-Diphenyl-1-propyl)1-(1,2-dioxo-3,3-dimethylpentyl) azetidine-2-carboxylate] | 110% of DMSO-treated control | 119% of DMSO-treated control |  |
| CCC(C)(C)C(=O)C(=O)N1[C@@H](C(=O)OCCCCc2ccc(OC)cc2)C[C@H]1C(=O)OCCCCc1ccc(OC)cc1 [Compound 16, (2S,4R)-Bis-[4-(4-methoxyphenyl)-1-butyl]-1-(1,2-dioxo-3,3-dimethylpentyl)azetidine-2,4-dicarboxylate] | 114% of DMSO-treated control |  |  |
| CCC(C)(C)C(=O)C(=O)N1CC[C@H]1C(=O)OC(C)(C)CCc1cccnc1 [Compound 2, (2S)-[3-(3-Pyridyl)-1,1-dimethyl-1-propyl]-1-(1,2-dioxo-3,3-dimethylpentyl)azetidine-2-dicarboxylate] | 134% of DMSO-treated control |  | DRG [3]: + |
| CCC(C)(C)C(=O)C(=O)N1[C@H](C(=O)OCCCCc2ccc(OC)cc2)C[C@H]1C(=O)OCCCCc1ccc(OC)cc1 [Compound 21, (2S,4S)-Bis-[4-(4-methoxyphenyl)-1-butyl]-1-(1,2-dioxo-3,3-dimethylpentyl)azetidine-2,4-dicarboxylate] | 103% of DMSO-treated control |  |  |
| O=C(C(=O)N1CC[C@H]1C(=O)OCCCc1cccnc1)c1cccs1 [Compound 11, (2S)-[3-(3-Pyridyl)-1-propyl]-1-[1,2-dioxo-2-(thien-2-yl)ethyl]azetidine-2-carboxylate] |  | 114% of DMSO-treated control |  |
| CCC(C)(C)C(=O)C(=O)N1[C@@H](C(=O)OCCCCc2ccc(OC)cc2)C[C@@H]1C(=O)OCCCCc1ccc(OC)cc1 [Compound 19, (2R,4R)-Bis-[4-(4-methoxyphenyl)-1-butyl]-1-(1,2-dioxo-3,3-dimethylpentyl)azetidine-2,4-dicarboxylate] | 111% of DMSO-treated control |  |  |
| C=CC[C@@H]1/C=C(\C)C[C@H](C)C[C@H](OC)[C@H]2O[C@@](O)(C(=O)C(=O)N3CCCC[C@H]3C(=O)O[C@H](/C(C)=C/[C@@H]3CC[C@@H](O)[C@H](OC)C3)[C@H](C)[C@@H](O)CC1=O)[C@H](C)C[C@@H]2OC [FK506] |  |  | neurotrophic activity [4]: shows neurotrophic activity; neurotrophic activity [5]: shows neurotrophic activity |
| CC(C)(C)C(=O)C(=O)N1CC[C@H]1C(=O)OCCCc1cccnc1 [Compound 10, (2S)-[3-(3-Pyridyl)-1-propyl]-1-(1,2-dioxo-3,3-dimethylbutyl)azetidine-2-carboxylate] |  | 123% of DMSO-treated control |  |
| CC(C)(C)NC(=O)N1CC[C@H]1C(=O)OCCCc1cccnc1 [Compound 7] |  | 123% of DMSO-treated control |  |
| O=C(C(=O)N1CC[C@H]1C(=O)OCCCc1cccnc1)c1ccccc1 [Compound 9] |  | 112% of DMSO-treated control |  |
| CCC(C)(C)C(=O)C(=O)N1CC[C@H]1c1nnnn1CCCc1cccnc1 [Compound 14, (2S)-1-(1,2-Dioxo-3,3-dimethylpentyl)2-(1-[3-(3-pyridyl)-1-propyl]-1H-tetrazol-5-yl)azetidine] |  | 118% of DMSO-treated control |  |
| COc1ccc(CCCCOC(=O)[C@@H]2C[C@@H](C(=O)OCCCCc3ccc(OC)cc3)N2C(=O)C(=O)c2ccccc2)cc1 [Compound 15, (2S,4S)-Bis-[4-(4-methoxyphenyl)-1-butyl)-1-(1,2-dioxo-2-phenylethyl)azetidine-2,4-dicarboxylate] |  | 126% of DMSO-treated control |  |
| CCC(C)(C)C(=O)C(=O)N1C(C(=O)OCCCc2cccnc2)C[C@H]1C(=O)OCCCc1cccnc1 (stereo partly drawn) [Compound 18, (2S,4R)-Bis-[3-(3-pyridyl)-1-propyl]-1-(1,2-dioxo-3,3-dimethylpentyl)azetidine-2,4-dicarboxylate] | 106% of DMSO-treated control | 137% of DMSO-treated control |  |
| CCC(C)(C)C(=O)C(=O)N1C(C(=O)OCCCc2cccnc2)C[C@@H]1C(=O)OCCCc1cccnc1 (stereo partly drawn) [Compound 20, (2R,4R)-Bis-[3-(3-pyridyl)-1-propyl]-1-(1,2-dioxo-3,3-dimethylpentyl)azetidine-2,4-dicarboxylate] | 103% of DMSO-treated control |  |  |
| CCC(C)(C)C(=O)C(=O)N1CC[C@H]1C(=O)OCCCc1cccnc1 [Compound 1, (2S)-[3-(3-Pyridyl)1-propyl]-1-(1,2-dioxo-3,3-dimethylpentyl)azetidine-2-carboxylate] | 140% of DMSO-treated control |  | Restoration of whisker movement on the paralyzed side [6]: restored more rapidly; DRG [3]: + |
| CCC(C)(C)C(=O)C(=O)N1[C@@H](C(=O)OCCC(c2ccccc2)c2ccccc2)C[C@H]1C(=O)OCCC(c1ccccc1)c1ccccc1 [Compound 17, (2S,4R)-Bis-(3,3-diphenyl-1-propyl)-1-(1,2-dioxo-3,3-dimethylpentyl)azetidine-2,4-dicarboxylate] | 106% of DMSO-treated control |  |  |
| Cc1cc(C(=O)N2CC[C@H]2C(=O)OCCCc2cccnc2)nn1C [Compound 13, (2S)-[3-(3-Pyridyl)-1-propyl]-1-[(1,5-dimethylpyrazol-3-yl)carbonyl]azetidine-2-carboxylate] |  | 123% of DMSO-treated control |  |
